{"source": "paper PMC8020795", "about": "(Proceedings of the National Academy of Sciences of the …, 2021)", "key": {"[1]": {"experiment": "in vivo", "settings": "male, C57BL/6, mouse, in vivo, sc, 6 mg/kg", "description": "Pharmacokinetics and toxicological studies\nMale C57BL/6 mice, each weighing 23.4–25.4 g, were quarantined for 1 week before drug treatment. Compounds dissolved in 100% saline were individually given to mice (n = 3) subcutaneously (6 mg/kg; nonfasted mice). Blood samples were collected via cardiac puncture at defined time points (0 (immediately before dosing), 0.03, 0.08, 0.25, 0.5, 1, 2, and 4 h after dosing) and then stored at −80 °C. The volume of the dosing solution given was 100 µL for each mouse. The plasma samples were analyzed by liquid chromatography– tandem mass spectrometry (LC–MS/MS), and the data were calculated by a standard noncompartmental method using the Kinetica software program (InnaPhase). […]"}, "[2]": {"test_system": "HCA-1 cells", "experiment": "CXCL12-induced HCA-1 chemotaxis (invasion assay)", "assay_type": "cell-based, murine", "settings": "concentration up to 1 µM", "description": "[3-(2-Aminomethyl-oxazol-4-yl)-propyl]-[3-(tert-butoxycarbonyl-cyclohexyl-amino)- propyl]-carbamic acid tert-butyl ester (Linker 1). A mixture of L1-6 (10.35 g, 16.5 mmol) and 10% Pd/C (4.66 g) in iso-propanol (310 mL) was stirred under H2(g) at 50 °C for 15 h.\nThe resulting mixture was filtered, and the filtrate was concentrated to afford Linker 1 (7.23 g, […]\nWound healing and invasion assays\nCell migration ability was measured by wound healing assay. HCA-1 cells (5 × 10^5 cells per well) were seeded onto 12-well plates and incubated overnight. When the cell confluence exceeded 90%, scratch wounds were made by scraping a straight line in the middle of the cell layer using the tip of a 1000 µL pipette. After washing the cells with PBS, the cells were incubated in serum-free medium under different treatment conditions (control, 100 ng/mL CXCL12, and 10 µM BPRCX807 with 100 ng/mL CXCL12). Then, 3-4 fields (40×) of each group were randomly chosen and observed by a microscope (IX83, Olympus, Japan) at time points of 0 h, 24h, 48 h and 72 h. For the invasion assay, HCA-1 cells were suspended in RPMI 1640 containing 0.5% FBS and then preincubated with the indicated concentrations of compounds for 10 min at 37 °C. […] After 17.5 h of incubation at 37 °C, the cells in both chambers of the inserts were measured with a CellTiter-Glo Luminescent Cell Viability Assay (Promega, Wisconsin). […]"}}}
{"smiles": "Cc1cc(NC2CCN(C(=O)CCNCC(=O)O)CC2)nc(NCc2nc(CCCNCCCNC3CCCCC3)co2)n1", "note": "[BPRCX807]", "values": [{"measurement": "AUC(0-t)", "setting": "[1]", "value": 16500, "unit": "ng·h/mL"}, {"measurement": "Cmax", "setting": "[1]", "value": 18800, "unit": "ng/mL"}, {"measurement": "half-life", "setting": "[1]", "value": 1, "unit": "h"}, {"measurement": "CXCL12-induced cell migration", "setting": "[2]", "value": "significant decrease"}]}
